This note sets out measurements from ChEMBL document CHEMBL4507268 (2021).

The structures appear in SMILES notation.

The target in assay [1] is Tyrosine-protein kinase Lck (Homo sapiens) (UniProt P06239). Conditions: Compound concentration 1000.0 nM.
The target of assay [2] is Histamine H4 receptor (Homo sapiens) (UniProt Q9H3N8). The conditions noted are these: Compound concentration 10.0 uM.
In assay [3] the target is Cyclin-dependent kinase 4 (Homo sapiens) (UniProt P11802). Conditions: Compound concentration 1000.0 nM.
Sequence of Cyclin-dependent kinase 4 (Homo sapiens) (P11802 whole entry): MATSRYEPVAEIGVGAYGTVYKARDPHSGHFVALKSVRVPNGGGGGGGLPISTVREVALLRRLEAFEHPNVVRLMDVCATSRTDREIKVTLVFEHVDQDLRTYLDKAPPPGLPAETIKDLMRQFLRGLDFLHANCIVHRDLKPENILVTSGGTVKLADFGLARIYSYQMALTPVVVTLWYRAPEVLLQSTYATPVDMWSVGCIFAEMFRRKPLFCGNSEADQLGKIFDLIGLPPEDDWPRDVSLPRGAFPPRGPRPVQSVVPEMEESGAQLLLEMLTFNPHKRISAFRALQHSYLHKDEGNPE
Assay [4] deals with T1, Homeodomain-interacting protein kinase 4 (Homo sapiens) (UniProt Q8NE63).
T1 sequence (whole entry): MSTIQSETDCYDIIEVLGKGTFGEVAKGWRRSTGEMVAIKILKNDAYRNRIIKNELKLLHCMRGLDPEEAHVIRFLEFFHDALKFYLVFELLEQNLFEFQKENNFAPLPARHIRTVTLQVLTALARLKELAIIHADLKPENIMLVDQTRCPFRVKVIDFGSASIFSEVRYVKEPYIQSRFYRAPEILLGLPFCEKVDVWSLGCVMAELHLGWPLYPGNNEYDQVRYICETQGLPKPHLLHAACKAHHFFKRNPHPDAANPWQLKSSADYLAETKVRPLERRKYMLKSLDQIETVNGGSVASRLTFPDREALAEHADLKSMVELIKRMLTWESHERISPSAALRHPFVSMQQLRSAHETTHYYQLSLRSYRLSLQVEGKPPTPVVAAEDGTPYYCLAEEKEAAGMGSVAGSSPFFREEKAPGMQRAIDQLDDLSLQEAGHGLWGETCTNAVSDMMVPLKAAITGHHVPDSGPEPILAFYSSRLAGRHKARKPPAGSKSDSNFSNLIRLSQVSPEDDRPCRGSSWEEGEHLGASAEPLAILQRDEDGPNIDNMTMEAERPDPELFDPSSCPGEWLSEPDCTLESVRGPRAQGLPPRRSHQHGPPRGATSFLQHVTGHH
The conditions noted are these: Compound concentration 1000.0 nM.

Assay [5] concerns the target Ribosomal protein S6 kinase alpha-1 (Homo sapiens) (UniProt Q15418). Conditions: Compound concentration 1000.0 nM.
The target of assay [6] is Serine/threonine-protein kinase LATS1 (Homo sapiens) (UniProt O95835). Conditions: Compound concentration 1000.0 nM.
For assay [7], the target named is Sigma non-opioid intracellular receptor 1 (Homo sapiens, UniProt Q99720). Conditions: Compound concentration 10.0 uM.
Sequence of Sigma non-opioid intracellular receptor 1 (Q99720 whole entry): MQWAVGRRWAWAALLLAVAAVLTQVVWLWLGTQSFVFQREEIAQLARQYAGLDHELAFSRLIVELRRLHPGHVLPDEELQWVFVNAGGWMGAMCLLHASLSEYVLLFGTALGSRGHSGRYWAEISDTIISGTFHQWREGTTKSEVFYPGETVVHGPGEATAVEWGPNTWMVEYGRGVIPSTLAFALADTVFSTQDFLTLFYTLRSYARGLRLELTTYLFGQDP
Assay [8] concerns the target Dual specificity mitogen-activated protein kinase kinase 5 (Homo sapiens) (UniProt Q13163). Conditions: Compound concentration 1000.0 nM.
Assay [9] concerns the target Ephrin type-A receptor 2 (Homo sapiens) (UniProt P29317). The conditions noted are these: Compound concentration 1000.0 nM.
The target of assay [10] is Cyclin-dependent kinase 19 (Homo sapiens) (UniProt Q9BWU1). The conditions noted are these: Compound concentration 1000.0 nM.
Sequence of Cyclin-dependent kinase 19 (Homo sapiens) (Q9BWU1 whole entry): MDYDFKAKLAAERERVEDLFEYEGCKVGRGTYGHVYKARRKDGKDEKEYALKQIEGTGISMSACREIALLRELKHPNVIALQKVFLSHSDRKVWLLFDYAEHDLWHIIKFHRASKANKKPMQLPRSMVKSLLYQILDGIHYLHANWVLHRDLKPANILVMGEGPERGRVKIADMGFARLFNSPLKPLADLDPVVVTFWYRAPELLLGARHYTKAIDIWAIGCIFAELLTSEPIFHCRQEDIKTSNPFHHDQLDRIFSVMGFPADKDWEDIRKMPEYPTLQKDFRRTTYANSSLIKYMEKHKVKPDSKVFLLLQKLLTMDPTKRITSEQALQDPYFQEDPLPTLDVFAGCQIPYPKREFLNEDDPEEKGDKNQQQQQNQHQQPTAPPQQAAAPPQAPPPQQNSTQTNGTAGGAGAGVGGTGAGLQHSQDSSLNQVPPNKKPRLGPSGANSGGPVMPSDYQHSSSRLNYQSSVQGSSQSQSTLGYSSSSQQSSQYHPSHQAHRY
The target of assay [11] is Protein kinase C delta type (Homo sapiens) (UniProt Q05655). The conditions noted are these: Compound concentration 1000.0 nM.
The target in assay [12] is Dual specificity mitogen-activated protein kinase kinase 2 (Homo sapiens) (UniProt P36507). The conditions noted are these: Compound concentration 1000.0 nM.
Sequence of Dual specificity mitogen-activated protein kinase kinase 2 (Homo sapiens) (P36507 whole entry): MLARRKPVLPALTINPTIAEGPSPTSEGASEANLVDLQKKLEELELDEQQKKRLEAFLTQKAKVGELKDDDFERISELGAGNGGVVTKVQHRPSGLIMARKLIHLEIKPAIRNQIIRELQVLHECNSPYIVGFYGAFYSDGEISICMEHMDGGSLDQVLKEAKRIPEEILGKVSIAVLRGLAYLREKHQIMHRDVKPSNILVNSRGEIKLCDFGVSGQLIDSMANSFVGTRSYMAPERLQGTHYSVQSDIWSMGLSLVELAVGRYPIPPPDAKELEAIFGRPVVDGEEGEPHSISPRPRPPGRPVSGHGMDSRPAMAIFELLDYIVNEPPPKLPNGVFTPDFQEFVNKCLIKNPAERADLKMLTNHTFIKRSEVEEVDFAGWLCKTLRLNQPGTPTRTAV
For assay [13], the target named is Serine/threonine-protein kinase PAK 3 (Homo sapiens) (UniProt O75914). The conditions noted are these: Compound concentration 1000.0 nM.
Assay [14] has as its target Cytoplasmic tyrosine-protein kinase BMX (Homo sapiens) (UniProt P51813). Conditions: Compound concentration 1000.0 nM.
Assay [15] has as its target Phosphatidylinositol 4,5-bisphosphate 3-kinase catalytic subunit beta isoform (Homo sapiens) (UniProt P42338). Conditions: Compound concentration 1000.0 nM.
Assay [16] concerns the target Tyrosine-protein kinase receptor Tie-1 (Homo sapiens) (UniProt P35590). Conditions: Compound concentration 1000.0 nM.
Assay [17] deals with Serine/threonine-protein kinase mTOR (Homo sapiens) (UniProt P42345). Conditions: Compound concentration 1000.0 nM.
The target in assay [18] is Casein kinase I isoform gamma-3 (Homo sapiens) (UniProt Q9Y6M4). The conditions noted are these: Compound concentration 1000.0 nM.
The target in assay [19] is T2, Ephrin type-A receptor 3 (Homo sapiens) (UniProt P29320).
T2 sequence (whole entry): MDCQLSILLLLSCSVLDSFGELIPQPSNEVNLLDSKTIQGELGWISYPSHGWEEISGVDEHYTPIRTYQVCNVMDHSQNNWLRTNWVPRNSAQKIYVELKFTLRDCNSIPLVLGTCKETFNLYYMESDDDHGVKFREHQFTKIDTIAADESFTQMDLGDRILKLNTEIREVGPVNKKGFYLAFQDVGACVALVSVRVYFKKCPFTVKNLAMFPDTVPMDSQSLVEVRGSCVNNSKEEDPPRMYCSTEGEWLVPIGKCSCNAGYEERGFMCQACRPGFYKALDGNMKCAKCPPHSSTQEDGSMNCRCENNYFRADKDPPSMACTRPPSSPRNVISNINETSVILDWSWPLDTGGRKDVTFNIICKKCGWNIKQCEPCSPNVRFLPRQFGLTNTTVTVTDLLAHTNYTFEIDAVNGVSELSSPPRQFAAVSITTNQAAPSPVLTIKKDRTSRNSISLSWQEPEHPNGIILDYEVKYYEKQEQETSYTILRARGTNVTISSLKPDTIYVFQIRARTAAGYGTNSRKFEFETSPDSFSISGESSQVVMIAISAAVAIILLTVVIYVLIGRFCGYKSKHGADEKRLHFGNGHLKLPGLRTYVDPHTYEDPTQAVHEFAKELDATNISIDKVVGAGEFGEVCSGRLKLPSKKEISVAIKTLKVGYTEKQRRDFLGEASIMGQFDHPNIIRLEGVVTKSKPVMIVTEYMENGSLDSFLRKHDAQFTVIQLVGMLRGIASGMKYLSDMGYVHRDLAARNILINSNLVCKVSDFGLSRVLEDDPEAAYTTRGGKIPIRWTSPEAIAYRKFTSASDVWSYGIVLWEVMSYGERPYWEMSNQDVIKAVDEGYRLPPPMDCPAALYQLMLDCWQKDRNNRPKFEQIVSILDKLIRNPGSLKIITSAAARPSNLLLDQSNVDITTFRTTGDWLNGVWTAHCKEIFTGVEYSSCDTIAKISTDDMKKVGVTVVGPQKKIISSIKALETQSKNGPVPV
The conditions noted are these: Compound concentration 1000.0 nM.

Assay [20] has as its target Dual serine/threonine and tyrosine protein kinase (Homo sapiens) (UniProt Q6XUX3). The conditions noted are these: Compound concentration 1000.0 nM.
Assay [21] deals with Cyclin-dependent kinase-like 3 (Homo sapiens) (UniProt Q8IVW4). The conditions noted are these: Compound concentration 1000.0 nM.
The target of assay [22] is Mitogen-activated protein kinase kinase kinase 4 (Homo sapiens) (UniProt Q9Y6R4). Conditions: Compound concentration 1000.0 nM.
In assay [23] the target is SRSF protein kinase 1 (Homo sapiens) (UniProt Q96SB4). Conditions: Compound concentration 1000.0 nM.
Sequence of SRSF protein kinase 1 (Homo sapiens) (Q96SB4 whole entry): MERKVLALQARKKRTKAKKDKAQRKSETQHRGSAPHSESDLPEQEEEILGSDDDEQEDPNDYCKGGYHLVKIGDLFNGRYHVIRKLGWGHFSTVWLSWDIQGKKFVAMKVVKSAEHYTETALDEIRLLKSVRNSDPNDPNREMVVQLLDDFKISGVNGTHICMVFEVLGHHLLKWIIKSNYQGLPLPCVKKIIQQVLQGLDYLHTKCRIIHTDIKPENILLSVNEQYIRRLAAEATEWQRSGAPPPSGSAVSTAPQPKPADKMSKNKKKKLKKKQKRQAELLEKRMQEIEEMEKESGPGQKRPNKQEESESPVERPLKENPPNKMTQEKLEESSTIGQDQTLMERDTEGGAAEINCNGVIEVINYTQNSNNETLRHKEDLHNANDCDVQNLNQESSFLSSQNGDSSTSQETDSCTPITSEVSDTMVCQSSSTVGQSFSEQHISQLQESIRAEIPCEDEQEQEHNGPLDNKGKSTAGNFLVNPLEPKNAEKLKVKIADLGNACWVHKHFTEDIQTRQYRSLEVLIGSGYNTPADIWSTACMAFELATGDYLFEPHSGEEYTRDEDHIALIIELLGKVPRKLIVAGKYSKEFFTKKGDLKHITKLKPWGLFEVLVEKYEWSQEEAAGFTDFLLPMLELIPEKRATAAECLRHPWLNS
The target in assay [24] is cAMP-dependent protein kinase catalytic subunit beta (Homo sapiens) (UniProt P22694). The conditions noted are these: Compound concentration 1000.0 nM.

Sequence of Tyrosine-protein kinase receptor Tie-1 (Homo sapiens) (P35590 whole entry): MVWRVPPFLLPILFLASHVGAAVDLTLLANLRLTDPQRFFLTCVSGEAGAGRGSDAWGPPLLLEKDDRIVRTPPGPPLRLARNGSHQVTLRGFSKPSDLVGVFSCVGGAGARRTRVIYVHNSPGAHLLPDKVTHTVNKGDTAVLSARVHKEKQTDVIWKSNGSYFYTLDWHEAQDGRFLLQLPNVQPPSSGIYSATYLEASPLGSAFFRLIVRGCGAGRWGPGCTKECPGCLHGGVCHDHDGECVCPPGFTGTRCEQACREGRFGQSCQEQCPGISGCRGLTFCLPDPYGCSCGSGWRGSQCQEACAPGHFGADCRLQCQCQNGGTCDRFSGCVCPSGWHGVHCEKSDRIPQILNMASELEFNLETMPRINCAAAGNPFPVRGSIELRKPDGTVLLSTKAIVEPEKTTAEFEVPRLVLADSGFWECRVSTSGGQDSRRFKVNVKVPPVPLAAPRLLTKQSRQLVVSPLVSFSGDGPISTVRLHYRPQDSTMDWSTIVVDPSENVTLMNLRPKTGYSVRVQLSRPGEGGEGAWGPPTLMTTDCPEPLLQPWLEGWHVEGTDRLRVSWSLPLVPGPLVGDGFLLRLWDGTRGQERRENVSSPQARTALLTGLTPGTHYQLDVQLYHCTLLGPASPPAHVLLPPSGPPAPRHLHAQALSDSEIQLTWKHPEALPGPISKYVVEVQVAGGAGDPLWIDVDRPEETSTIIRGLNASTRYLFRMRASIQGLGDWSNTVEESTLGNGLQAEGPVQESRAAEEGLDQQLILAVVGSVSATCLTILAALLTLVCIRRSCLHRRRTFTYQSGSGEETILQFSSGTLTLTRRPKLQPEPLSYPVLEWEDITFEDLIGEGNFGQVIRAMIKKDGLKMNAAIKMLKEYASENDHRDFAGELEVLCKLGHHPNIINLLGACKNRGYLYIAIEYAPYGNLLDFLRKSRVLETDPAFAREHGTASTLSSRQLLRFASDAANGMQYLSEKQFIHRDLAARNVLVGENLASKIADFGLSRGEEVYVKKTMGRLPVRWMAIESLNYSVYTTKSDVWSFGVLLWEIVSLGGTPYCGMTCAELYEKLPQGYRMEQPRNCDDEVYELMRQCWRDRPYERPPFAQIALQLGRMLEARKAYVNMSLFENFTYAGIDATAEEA
Sequence of Ribosomal protein S6 kinase alpha-1 (Homo sapiens) (Q15418 whole entry): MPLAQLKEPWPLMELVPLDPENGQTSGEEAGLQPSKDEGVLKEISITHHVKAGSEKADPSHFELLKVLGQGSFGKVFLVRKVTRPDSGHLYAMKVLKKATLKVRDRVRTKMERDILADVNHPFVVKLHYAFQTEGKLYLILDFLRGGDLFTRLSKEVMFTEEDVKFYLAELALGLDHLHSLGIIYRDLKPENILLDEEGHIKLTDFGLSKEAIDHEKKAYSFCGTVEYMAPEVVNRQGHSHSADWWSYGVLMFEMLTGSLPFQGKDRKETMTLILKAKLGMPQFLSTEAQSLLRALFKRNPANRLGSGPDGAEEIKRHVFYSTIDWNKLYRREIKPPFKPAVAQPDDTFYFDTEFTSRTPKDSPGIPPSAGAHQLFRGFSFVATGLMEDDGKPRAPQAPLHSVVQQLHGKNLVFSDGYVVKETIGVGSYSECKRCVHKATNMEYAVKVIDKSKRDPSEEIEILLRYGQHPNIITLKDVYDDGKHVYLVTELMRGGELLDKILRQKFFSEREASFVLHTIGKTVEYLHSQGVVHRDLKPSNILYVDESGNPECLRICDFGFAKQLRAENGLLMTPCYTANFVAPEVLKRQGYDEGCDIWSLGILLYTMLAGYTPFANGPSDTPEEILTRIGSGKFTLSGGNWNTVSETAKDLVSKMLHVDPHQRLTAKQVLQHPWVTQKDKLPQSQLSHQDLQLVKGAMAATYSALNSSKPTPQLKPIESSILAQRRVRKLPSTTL
Sequence of Phosphatidylinositol 4,5-bisphosphate 3-kinase catalytic subunit beta isoform (Homo sapiens) (P42338 whole entry, looked up, canonical isoform): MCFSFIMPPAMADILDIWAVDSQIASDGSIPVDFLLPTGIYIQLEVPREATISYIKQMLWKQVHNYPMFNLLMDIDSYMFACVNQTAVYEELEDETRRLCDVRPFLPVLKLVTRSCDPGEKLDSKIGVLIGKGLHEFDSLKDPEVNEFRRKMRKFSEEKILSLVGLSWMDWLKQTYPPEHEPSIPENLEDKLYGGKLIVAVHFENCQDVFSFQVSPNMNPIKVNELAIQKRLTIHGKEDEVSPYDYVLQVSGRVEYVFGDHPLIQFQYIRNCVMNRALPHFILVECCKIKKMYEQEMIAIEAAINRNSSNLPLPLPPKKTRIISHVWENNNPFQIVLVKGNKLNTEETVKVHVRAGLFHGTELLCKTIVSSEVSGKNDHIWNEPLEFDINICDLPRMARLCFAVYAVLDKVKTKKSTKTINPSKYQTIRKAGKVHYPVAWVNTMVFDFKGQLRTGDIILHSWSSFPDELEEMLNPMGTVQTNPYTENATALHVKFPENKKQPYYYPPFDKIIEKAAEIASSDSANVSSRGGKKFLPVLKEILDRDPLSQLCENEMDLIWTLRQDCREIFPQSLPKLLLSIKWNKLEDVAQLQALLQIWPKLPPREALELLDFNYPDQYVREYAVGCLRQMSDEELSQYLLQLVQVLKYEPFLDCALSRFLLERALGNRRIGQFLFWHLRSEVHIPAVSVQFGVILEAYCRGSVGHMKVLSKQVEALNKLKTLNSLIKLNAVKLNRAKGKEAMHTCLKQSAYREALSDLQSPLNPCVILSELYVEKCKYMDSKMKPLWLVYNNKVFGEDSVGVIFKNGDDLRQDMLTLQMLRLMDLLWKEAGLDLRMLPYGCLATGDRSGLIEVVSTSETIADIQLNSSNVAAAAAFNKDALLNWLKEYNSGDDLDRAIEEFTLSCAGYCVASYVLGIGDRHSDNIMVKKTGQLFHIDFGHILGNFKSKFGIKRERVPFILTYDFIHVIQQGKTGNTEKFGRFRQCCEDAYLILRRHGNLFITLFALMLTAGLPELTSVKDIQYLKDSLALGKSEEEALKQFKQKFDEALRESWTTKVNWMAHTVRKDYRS

The term inhibition denotes the drop in the measured response relative to a control, in per cent. For `Cc1nc(C2CCN(C(=O)c3ccc(OC(F)(F)F)cc3N)CC2)c2ncc(N3CCN(C)CC3)cc2n1` [BAY-693], the residual activity is 100% in [1]; 100% in assay [3]; 88% in [4]; 100% in [5]; 78% in assay [6]; 83% in assay [8]. Also, the residual activity is 100% in assay [9]; 86% in [10]; 100% in [11]; 100% in [12]; 100% in [13]; 100% in assay [14]. The residual activity in assay [15] was 94%; in assay [16] it was 100%; in assay [17], 78%; in assay [18], 100%; in [19], 92%; in [20], 95%. Besides, the residual activity in assay [21] is 92%; in assay [22] it was 100%; in assay [23], 79%; in assay [24], 100%. Moreover, the inhibition in [2] was -5.28%; in assay [7], 72.7%.

`CN1CCN(c2cnc3c(C4CCN(C(=O)c5ccc(OC(F)(F)F)cc5N)CC4)ncnc3c2)CC1` [BAY-885]: the residual activity is 100% in assay [1]; 100% in assay [3]; 100% in [4]; 100% in assay [5]; 81% in assay [6]; 86% in [8]. Further, the residual activity in [9] is 100%; in [10] it was 79%; in assay [11], 100%; in assay [12], 100%; in [13], 88%; in assay [14] it was 100%. Also, the residual activity was 100% in [15]; 80% in assay [16]; 78% in assay [17]; 100% in [18]; 100% in assay [19]; 100% in assay [20]. Moreover, the residual activity in assay [21] is 92%; in assay [22] it was 95%; in [23] it was 88%; in assay [24], 91%. The results for the inhibition in assay [2] and in assay [7] were -1.34% and 72.4%, respectively.
